pIC50: −log10 of the molar value.
Biological target: Tyrosine-protein kinase Lyn (Homo sapiens) (UniProt P07948)
Test: LYN A kinase inhibition, dose response, biochemical, LYN A isoform, Z'-LYTE, FRET readout (AID 1671318)
Conditions: Z'-LYTE FRET kinase assay, recombinant LYN A

Chain of Tyrosine-protein kinase Lyn (Homo sapiens) (P07948 whole entry, looked up, canonical isoform): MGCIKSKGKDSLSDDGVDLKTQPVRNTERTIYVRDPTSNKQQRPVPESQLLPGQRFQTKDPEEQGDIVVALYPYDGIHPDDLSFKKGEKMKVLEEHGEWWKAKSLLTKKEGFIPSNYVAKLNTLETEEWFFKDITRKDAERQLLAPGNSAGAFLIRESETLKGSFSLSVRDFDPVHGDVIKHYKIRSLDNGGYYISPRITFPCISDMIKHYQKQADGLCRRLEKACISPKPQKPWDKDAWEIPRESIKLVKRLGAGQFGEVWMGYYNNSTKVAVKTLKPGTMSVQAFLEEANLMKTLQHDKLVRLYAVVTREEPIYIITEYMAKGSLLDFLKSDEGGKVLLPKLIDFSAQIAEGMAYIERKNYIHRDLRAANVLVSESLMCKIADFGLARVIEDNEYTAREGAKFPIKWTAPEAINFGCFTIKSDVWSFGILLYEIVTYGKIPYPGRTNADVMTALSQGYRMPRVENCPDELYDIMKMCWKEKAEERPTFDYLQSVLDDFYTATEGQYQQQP

Q: How did the pIC50 turn out when `COc1cc2ncnc(Nc3cccc(Cl)c3)c2cc1OC` was run?
A: 6.68
